Reference: US7196105B2, “Treatment of human multiple myeloma by curcumin” (Research Development Foundation, priority 2002, dated 2007)
“Also recorded” adds a separate entry of the source.

Assays:
Format in all cases: cell-based, human
U266 cells [1] = test: Flow cytometric cell cycle analysis (propidium iodide); conditions: U266, 10 μM curcumin, 24 h
Protocol: U266 cells (2×10^6 cells/ml) were incubated in the absence or presence of curcumin (10 μM) for the indicated times. The cells were then washed, fixed, stained with propidium iodide, and analyzed for DNA content by flow cytometry. […] After incubation for overnight at −20° C., cells were washed with PBS prior to staining with propidium iodide (PI), and then suspended in staining buffer (PI, […]; Tween-20, 0.5%; RNase, 0.1% in PBS). The cells were analyzed using a FACS Vantage flow cytometer that uses CellQuest acquisition and analysis programs (Becton Dickinson, San Jose, Calif.).

[2] = test system: multiple myeloma cell lines (U266, RPMI 8226, MM.1, MM.1R); test: Growth/proliferation of all multiple myeloma cell lines tested (statement for all lines); conditions: curcumin 10 μM
From the text: The results are shown as the mean (±s. d.) cell count from triplicate cultures.

U266 cells [3] = test: Proliferation by thymidine incorporation; conditions: U266, 24 h, different concentrations
Protocol: FIG. 6A: U266 cells (5000 cells/0.1 ml) were incubated with different concentrations of curcumin for 24 hours, and cell proliferation assay was performed as described. Results are shown as mean (±s.d.) of percent [^3H}-thymidine incorporation of triplicate cultures compared to untreated control. FIG. 6B: U266 cells (5000 cells/0.1 ml) were incubated with different concentrations of curcumin for 24 hours, and cell viability was determined by MTT method. The results are shown as the mean (±s.d.) percent viability from triplicate cultures. The antiproliferative effects of curcumin were also monitored by the thymidine incorporation method. Five thousand cells in […] medium were cultured in triplicate in 96-well plates in the presence or absence of curcumin for 24 h. Six hours before the completion of experiment, the cells were pulsed with […] ^3H-thymidine, and the uptake of ^3H-thymidine was monitored using a Matrix-9600 b-counter (Packard Instruments, Downers Grove, Ill.).

caspase-9 = test: Western blot for procaspase-9 (apoptosis); conditions: U266, curcumin 50 μM, time course
Protocol: (§1) The cells were washed and total proteins were extracted by lysing the cells. Sixty microgram of extracts were resolved on 10% SDS-PAGE gel, electrotransferred to a nitrocellulose membrane, and probed with anti-procaspase-9 (FIG. 6C), anti-procaspase-7 (FIG. 6D), anti-PARP (FIG. 6E, upper panel) and anti-cleaved PARP (FIG. 6E, lower penal). […] Lysates were then spun at 14000 rpm for 10 min to remove insoluble material, resolved on 7.5% gel and probed with PARP antibodies. PARP was cleaved from the 116-kDa intact protein into 85-kDa and 40-kDa peptide products. To detect cleavage products of procaspase 7 and procaspase 9, whole cell extracts were resolved on 10% gel and probed with appropriate antibodies.

U266 cells [4] = test: Cytotoxic effect of vincristine with or without curcumin (MTT); conditions: U266, curcumin 10 μM alone, 24 h
Protocol: The antiproliferative effects of curcumin against different multiple myeloma cell lines were determined by the MTT dye uptake method as described earlier (Manna et al., 1998). Briefly, cells (5000/well) were incubated in triplicate in a 96-well plate in the presence or absence of indicated test samples in a final volume of 0.1 ml for 24 h at 37° C. Thereafter, 0.025 ml of MTT solution (5 mg/ml in PBS) was added to each well. After a 2 h incubation at 37 ° C., 0.1 ml of extraction buffer (20% SDS, 50% dimethylformamide) was added. Incubation was continued for overnight at 37 ° C., and then the OD at 590 nm was measured using a 96-well multiscanner autoreader (Dynatech MR 5000), with extraction buffer as blank. Percent cell viability=(OD of the experiment samples/OD of the control)×100.

PARP = test: Western blot for PARP cleavage (apoptosis); conditions: U266, curcumin 50 μM, time course
Protocol: as §1

COc1cc(/C=C/C(=O)CC(=O)/C=C/c2ccc(O)c(OC)c2)ccc1O [curcumin, diferuloylmethane]
percentage of cells in the S phase (U266 cells [1]; from 22% without treatment): 9% | percentage of cells in the G1 phase (U266 cells [1]; from 52% without treatment): 70% | suppression of growth/proliferation [2]: completely suppressed the growth; also recorded: almost complete inhibition of proliferation | thymidine incorporation (U266 cells [3]): suppressed thymidine incorporation within 24 h in a dose-dependent manner | activation of caspase-9 (disappearance of 47-kDa band) (caspase-9): time-dependent activation | cells killed (U266 cells [4]): approximately 35% | PARP cleavage (PARP): cleavage of a 118-kDa PARP protein into an 89-kDa fragment
